# In patent US20230364109A1, “GANAXOLONE FOR USE IN TREATMENT OF SUPER REFRACTORY STATUS EPILEPTICUS” (MARINUS PHARMACEUTICALS, INC., priority 2020, published 2023):
# Key:
# [1] = system: patients with super refractory SE; conditions: Phase 3, randomized, double-blind, placebo-controlled; cited from earlier work
# [2] = system: super refractory status epilepticus; conditions: for response of SRSE to treatment given before GNX: same patient, before pentobarbitol coma or during it (ACTH)
compound,measurement,setting,value
CC(=O)[C@H]1CC[C@H]2[C@@H]3CC[C@H]4C[C@H](O)CC[C@]4(C)[C@H]3CC[C@]12C [brexanolone],efficacy over placebo in SRSE,[1],failed to show efficacy over placebo
CN1C(=O)CN=C(c2ccccc2)c2cc(Cl)ccc21 [diazepam],response of SRSE to treatment given before GNX,[2],No response
CCC1(C)CC(=O)NC1=O (stereo not shown) [ethoxsuccimide],response of SRSE to treatment given before GNX,[2],No response
O=C1Nc2ccc(Cl)cc2C(c2ccccc2Cl)=NC1O (stereo not shown) [lorazepam],response of SRSE to treatment given before GNX,[2],No response
Cc1ncc2n1-c1ccc(Cl)cc1C(c1ccccc1F)=NC2 [midazolam],response of SRSE to treatment given before GNX,[2],No response
N#Cc1ccccc1-c1cc(-c2ccccn2)cn(-c2ccccc2)c1=O [perampanel],response of SRSE to treatment given before GNX,[2],No response
CCCC(CCC)C(=O)O [valproic acid],serum level,"[2]; female, human, in vivo",106 µg/mL
